Source: EPA's CvTdb concentration-time database

Columns and labels:
Rat [1] = experiment: concentration in liver after dosing; conditions: 1848 h; dosed: Perfluorooctane Sulfonate; 2 mg/kg; oral; Female; Harlan Sprague Dawley
Rat [2] = experiment: concentration in plasma after dosing; conditions: dosed: Perfluorooctane Sulfonate, 2 mg/kg, iv, Male, F344
Rat [3] = experiment: concentration in kidney after dosing; conditions: 1848 h; dosed: Perfluorooctane Sulfonate; 2 mg/kg; oral; Female; Harlan Sprague Dawley
Rat [4] = experiment: concentration in liver after dosing; conditions: 864 h; dosed: Perfluorooctane Sulfonate; 20 mg/kg; oral; Male; Harlan Sprague Dawley
Rat [5] = experiment: concentration in plasma after dosing; conditions: dosed: Perfluorooctane Sulfonate, 2 mg/kg, iv, Female, Harlan Sprague-Dawley
Rat [6] = experiment: concentration in kidney after dosing; conditions: 864 h; dosed: Perfluorooctane Sulfonate; 20 mg/kg; oral; Male; Harlan Sprague Dawley
Rat [7] = experiment: concentration in plasma after dosing; conditions: 3360 h; dosed: Perfluorooctane Sulfonate; 2 mg/kg; oral; Female; Harlan Sprague Dawley
Rat [8] = experiment: concentration in plasma after dosing; conditions: 2 h; dosed: Gemfibrozil; 100 mg/kg; oral; Male; Sprague-Dawley
Rat [9] = experiment: concentration in liver after dosing; conditions: 0.5 h; dosed: Perfluorohexanoic Acid; 80 mg/kg; oral; Female; Harlan Sprague Dawley
Rat [10] = experiment: concentration in plasma after dosing; conditions: 1.5 h; dosed: Perfluorohexanoic Acid; 40 mg/kg; iv; Male; F344
Rat [11] = experiment: concentration in plasma after dosing; conditions: 1.5 h; dosed: Perfluorohexanoic Acid; 40 mg/kg; iv; Male; F344; remark: listed apart in the source
Rat [12] = experiment: concentration in plasma after dosing; conditions: 0.5 h; dosed: Perfluorohexanoic Acid; 80 mg/kg; oral; Male; Harlan Sprague Dawley
Rat [13] = experiment: concentration in plasma after dosing; conditions: dosed: Fluorotelomer alcohol 8+2, 12 mg/kg, oral, Male, Harlan Sprague Dawley
Rat [14] = experiment: concentration in plasma after dosing; conditions: dosed: 678-39-7, 40 mg/kg, iv, Male, F344
Rat [15] = experiment: concentration in plasma after dosing; conditions: dosed: 678-39-7, 12 mg/kg, iv, Male, F344
Rat [16] = experiment: concentration in liver after dosing; conditions: 0.5 h; dosed: Fluorotelomer alcohol 8+2; 80 mg/kg; oral; Female; Harlan Sprague Dawley
Rat [17] = experiment: concentration in plasma after dosing; conditions: 192 h; dosed: 678-39-7; 12 mg/kg; iv; Male; F344
Rat [18] = experiment: concentration in plasma after dosing; conditions: 3 h; dosed: 678-39-7; 40 mg/kg; iv; Male; F344
Rat [19] = experiment: concentration in plasma after dosing; conditions: dosed: 678-39-7, 12 mg/kg, iv, Male, F344; remark: listed apart in the source
Rat [20] = experiment: concentration in brain after dosing; conditions: 0.2 h; dosed: 2-Methyltetrahydrofuran; 40 mg/kg; iv; Male; Harlan Sprague Dawley

For `O=S(=O)([O-])C(F)(F)C(F)(F)C(F)(F)C(F)(F)C(F)(F)C(F)(F)C(F)(F)C(F)(F)F` [Perfluorooctane Sulfonate], the concentration in liver (Rat [1]) was 9070 ng/g, the concentration in plasma (Rat [2]; 12 h) was 4880 ng/mL and the concentration in plasma (Rat [2]; 864 h) was 2120 ng/mL. It also gave a concentration in kidney (Rat [3]) of 980 ng/g, a concentration in liver (Rat [4]) of 97500 ng/g and a concentration in plasma (Rat [5]; 1 h) of 4460 ng/mL. It also gave a concentration in plasma (Rat [5]; 192 h) of 2800 ng/mL, a concentration in plasma (Rat [5]; 1704 h) of 848 ng/mL and a concentration in kidney (Rat [6]) of 17800 ng/g. The concentration in plasma (Rat [7]) was 428 ng/mL.
Work on `Cc1ccc(C)c(OCCCC(C)(C)C(=O)O)c1` [Gemfibrozil] yielded a concentration in plasma (Rat [8]) of 5120 ng/mL.
`O=C(O)C(F)(F)C(F)(F)C(F)(F)C(F)(F)C(F)(F)F` [Perfluorohexanoic Acid] was tested, and the concentration in liver (Rat [9]) was 24900 ng/g, the concentration in plasma (Rat [10]) was 336 ng/mL and the concentration in plasma (Rat [11]) was 175 ng/mL. The concentration in plasma (Rat [12]) was 151000 ng/mL.
Work on `O=C(O)CCC(F)(F)C(F)(F)C(F)(F)C(F)(F)C(F)(F)C(F)(F)C(F)(F)F` [Fluorotelomer acid 7+3] yielded a concentration in plasma (Rat [13]; 1 h) of 650 ng/mL, a concentration in plasma (Rat [13]; 24 h) of 210 ng/mL and a concentration in plasma (Rat [14]; 0.25 h) of 84.2 ng/mL. The concentration in plasma (Rat [14]; 6 h) was 820 ng/mL, the concentration in plasma (Rat [15]; 1 h) was 502 ng/mL and the concentration in plasma (Rat [15]; 6 h) was 706 ng/mL. It also gave a concentration in liver (Rat [16]) of 2020 ng/g, a concentration in plasma (Rat [17]) of 13.6 ng/mL and a concentration in plasma (Rat [18]) of 2370 ng/mL. It also gave a concentration in plasma (Rat [19]; 0.5 h) of 127 ng/mL and a concentration in plasma (Rat [19]; 9 h) of 159 ng/mL.
`CC1CCCO1` (configuration not stated) [2-Methyltetrahydrofuran] showed a concentration in brain (Rat [20]) of 24100 ng/mL.
